Test results reported in patent US11013735B2, “Specific Akt3 inhibitor and uses thereof” (Augusta University Research Institute, Inc., priority 2016, dated 2021).

Columns and labels:
[1] = tested on: TC-1 tumor; test: TC-1 tumor growth and survival, JJ64-C alone or with vaccine; type: in vivo, C57BL/6 mice; conditions: i.p. every other day from day 6
Procedure: (§1) C57BL/6 mice (n=5/group) were injected s.c. in the right flank with 7×10^4 TC-1 cells. Mice from appropriate groups were injected weekly with vaccine (s.c.) or DMSO 5% as a control. Mice were also treated with vaccine (weekly) along with either 10 mg/kg or 20 mg/kg of JJ64-C (or FIG. 7A or Formula 18) injected (i.p.) every other day starting on day 6 after tumor implantation throughout the experiment.
FIGS. 7C and 7D are bar diagrams representing average tumor volumes of mice for each group. FIG. 7E is a Kaplan-Meier plot of the overall survival. Statistical significance was determined by Log-rank (Mantel-Cox) test.
(§2) Statistical significance was determined by one-way ANOVA with Tukey's multiple comparison test (*, p<0.05; **, p<0.01; ***, p<0.001).

[2] = tested on: iTreg induction (CD4+FoxP3+ cells); test: iTreg induction from CD4+FoxP3- cells (TGF-β), flow cytometry; type: cell-based; conditions: anti-CD3, IL2, anti-CD28, TGF-β, 72 hrs
Procedure: (§3) FACS-sorted CD4+FoxP3− cells were plated on anti-CD3-coated plates with soluble IL2 and anti-CD28 with TGF-β (induction) Cell were induced for iTregs with JJ64-B (FIG. 6A) without inhibitor (Induction-IND)) for 72 hrs. Cells were harvested and the frequency of CD4+FoxP3+ cells was measured by flow cytometry.
as §3, with “JJ64-C (JJ64 modified drug C or Formula 18) or” for “JJ64-B (FIG. 6A)”
as §3, with “JJ64-D (JJ64 modified drug D or FIG. 9A) or” for “JJ64-B (FIG. 6A)”

[3] = biological target: T1, Akt3 (Mus musculus, UniProt Q9WUA6); test: Immunoblot of Akt3 phosphorylation (pAkt3) in activated nTregs; type: cell-based, WT C57BL/6J (foxp3-GFP) mice; conditions: nTregs on anti-CD3 with IL2 and anti-CD28, different concentrations of inhibitor, 72 hrs
T1 construct: nTreg cell lysates prepared on day 3 (72 hrs) of treatment were separated by SDS-PAGE and immunoblotted; endogenous in cells; host or cells: FACS-sorted primary nTregs from WT C57BL/6J (foxp3-GFP) mice
T1 sequence (Q9WUA6 whole entry): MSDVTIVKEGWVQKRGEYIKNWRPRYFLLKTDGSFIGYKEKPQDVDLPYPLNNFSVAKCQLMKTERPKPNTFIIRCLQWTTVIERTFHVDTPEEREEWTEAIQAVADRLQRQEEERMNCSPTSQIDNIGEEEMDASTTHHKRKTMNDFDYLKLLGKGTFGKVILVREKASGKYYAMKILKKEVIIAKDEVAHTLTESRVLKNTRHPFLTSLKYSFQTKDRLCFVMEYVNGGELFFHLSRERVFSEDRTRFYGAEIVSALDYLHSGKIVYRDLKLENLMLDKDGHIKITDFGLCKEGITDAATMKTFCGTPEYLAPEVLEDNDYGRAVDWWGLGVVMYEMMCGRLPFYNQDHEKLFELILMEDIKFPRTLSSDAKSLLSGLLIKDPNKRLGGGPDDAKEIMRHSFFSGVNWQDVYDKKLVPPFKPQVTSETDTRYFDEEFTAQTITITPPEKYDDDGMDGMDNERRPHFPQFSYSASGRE
Procedure: (§4) FACS-sorted natural regulatory T cells (nTregs), from WT C57BL/6J (foxp3-GFP) mice were plated on anti-CD3-coated plates and cultured in activation media (IL2 and anti-CD28) without inhibitors (Stimulated) and with different concentrations of inhibitor 4-[(6-nitroquinolin-4-yl)amino]-N-[4-(pyridin-4-ylamino)phenyl]benzamide (also referred to as JJ64-E) for 72 hrs. For negative control (Non-stimulated-NS) cells were left in media containing IL-2 for 72 hrs. nTreg cell lysates prepared on day 3 (72 hrs) of treatment were separated by SDS-PAGE and immunoblotted with specific antibodies (pAkt1) or pAkt3; actin was used as loading control.

[4] = tested on: nTregs; test: Proliferation (level of VCT) of FACS-sorted nTregs by flow cytometry; type: cell-based, C57BL/6J(foxp3-GFP); conditions: anti-CD3, IL2 and anti-CD28, 72 hrs, live gated cells
Procedure: (§5) FACS-sorted nTregs, CD4+ and CD8+ T cells from C57BL/6J(foxp3-GFP) were plated on anti-CD3-coated plates and cultured in activation media (IL2 and anti-CD28) without inhibitors (Stimulated) and with inhibitors (JJ64-E) for 72 hrs. For negative control (Non-stimulated-NS) cells were left in media containing IL-2 for 72 hrs. After 72 hrs Proliferation (level of VCT) in live gated cells was measured by flow cytometry.

[5] = tested on: Tregs (CD4+Foxp3+); test: Percentage of Tregs in vivo in TC-1 tumor model; set-up: species or system WT C57BL/6J mice; conditions: TC-1 tumor-bearing mice, 5 mg/kg or 10 mg/kg i.p. every day from day 10, analysed day 15
Procedure: (§6) WT C57BL/6J mice (n=3/group) were injected s.c. in the right flank with 7×10^4 TC-1 cells. Mice from appropriate groups were treated with either 5 mg/kg or 10 mg/kg of JJ64-E injected (i.p.) every day starting on day 10 after tumor implantation throughout the experiment. All groups were euthanized on day 15 of TC-1 implantation. The percentage of Tregs (CD4+Foxp3+) was analyzed by flow cytometry.
as §2

[6] = biological target: T2, Akt1 (Mus musculus, UniProt P31750); test: Immunoblot of Akt1 phosphorylation (pAkt1) in activated nTregs; type: cell-based, WT C57BL/6J (foxp3-GFP) mice; conditions: nTregs on anti-CD3 with IL2 and anti-CD28, different concentrations of inhibitor, 72 hrs
T2 construct: endogenous in cells; host or cells: FACS-sorted primary nTregs from WT C57BL/6J (foxp3-GFP) mice
T2 sequence (P31750 whole entry): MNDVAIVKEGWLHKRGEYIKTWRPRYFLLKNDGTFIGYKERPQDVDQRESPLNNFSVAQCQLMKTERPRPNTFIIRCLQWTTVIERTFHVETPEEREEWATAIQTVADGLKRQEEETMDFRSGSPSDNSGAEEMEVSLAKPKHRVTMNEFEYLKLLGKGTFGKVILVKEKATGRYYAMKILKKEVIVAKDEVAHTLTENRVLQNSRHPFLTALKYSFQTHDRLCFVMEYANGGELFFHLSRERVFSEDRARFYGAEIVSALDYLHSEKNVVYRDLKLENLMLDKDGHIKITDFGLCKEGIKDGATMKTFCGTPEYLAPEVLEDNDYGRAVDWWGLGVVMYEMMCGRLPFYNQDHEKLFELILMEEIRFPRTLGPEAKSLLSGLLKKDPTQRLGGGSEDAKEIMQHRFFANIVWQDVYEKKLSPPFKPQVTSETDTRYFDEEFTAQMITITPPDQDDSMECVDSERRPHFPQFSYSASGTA
Procedure: as §4

[7] = tested on: CD8 and other (FoxP3neg) CD4 T cells; test: Percentage of CD4 and CD8 T cells in vivo in TC-1 tumor model; set-up: species or system WT C57BL/6 mice; conditions: TC-1 tumor-bearing mice, 5 mg/kg or 10 mg/kg i.p. everyday from day 10, day 15, spleen
Procedure: as §6, with “C57BL/6 4-6 weeks old female” for “C57BL/6J”, “(n=5/group)” for “(n=3/group)”, “everyday” for “every day”, “CD4 and CD8 were” for “Tregs (CD4+Foxp3+) was”, “analyzed in splenic CD4+ cells” for “analyzed”

[8] = tested on: CD8+ T cells; test: Proliferation (level of VCT) of FACS-sorted CD8+ T cells by flow cytometry; type: cell-based, C57BL/6J(foxp3-GFP); conditions: anti-CD3, IL2 and anti-CD28, 72 hrs, live gated cells
Procedure: as §5

[9] = tested on: CD4+ T cells; test: Proliferation (level of VCT) of FACS-sorted CD4+ T cells by flow cytometry; type: cell-based, C57BL/6J(foxp3-GFP); conditions: anti-CD3, IL2 and anti-CD28, 72 hrs, live gated cells
Procedure: as §5

[10] = tested on: TC-1 tumor; test: TC-1 tumor growth and survival, JJ64-E alone or with vaccine; type: in vivo, C57BL/6 mice; conditions: i.p. every day from day 6
Procedure: as §1, with “JJ64-E” for “JJ64-C (or FIG. 7A or Formula 18)”, “every” for “every other”
FIGS. 5B and 5C are bar diagrams showing average tumor volumes of mice for each group. FIG. 5D is a Kaplan-Meier plot of the overall survival. Statistical significance was determined by Log-rank (Mantel-Cox) test.
as §2

[11] = high dose as monotherapy (10 or 20 mg/kg)
[12] = lower dose combined with weekly vaccine s.c. (10 or 20 mg/kg)
[13] = high dose as monotherapy (10 or 20 mg/kg tested)
[14] = lower dose combined with weekly vaccine s.c. (10 or 20 mg/kg tested)

Akt3 phosphorylation in Tregs (pAkt3 immunoblot) [3] | Akt1 phosphorylation in Tregs (pAkt1 immunoblot) [6] | Compound | TC-1 tumor growth (tumor volume) [1, 11] | overall survival (Kaplan-Meier) [1, 11] | TC-1 tumor growth (tumor volume) [1, 12] | overall survival (Kaplan-Meier) [1, 12] | iTreg induction (frequency of CD4+FoxP3+ cells) [2] | Treg proliferation (level of VCT) [4] | percentage of Tregs (CD4+Foxp3+) in vivo [5] | CD8 T cells in vivo [7] | other (FoxP3neg) CD4 T cells in vivo [7] | CD8 T cell proliferation (level of VCT) [8] | other CD4 T cell proliferation (level of VCT) [9] | TC-1 tumor growth (tumor volume) [10, 13] | overall survival (Kaplan-Meier) [10, 13] | TC-1 tumor growth (tumor volume) [10, 14] | overall survival (Kaplan-Meier) [10, 14]
– | – | O=C(Nc1cccc(Nc2ccncc2)c1)c1cccc(Nc2ccnc3ccc(F)cc23)c1 [compound 18] | inhibits TC-1 tumor growth | prolongs the survival | inhibits TC-1 tumor growth | prolongs the survival | inhibits iTregs induction | – | – | – | – | – | – | – | – | – | –
inhibits Akt3 | not Akt1 phosphorylation | O=C(Nc1ccc(Nc2ccncc2)cc1)c1ccc(Nc2ccnc3ccc([N+](=O)[O-])cc23)cc1 [4-[(6-nitroquinolin-4-yl)amino]-N-[4-(pyridin-4-ylamino)phenyl]benzamide] | – | – | – | – | – | selectively inhibits Treg proliferation | decreases Tregs in vivo | does not affect CD8 | does not affect CD8 and other (FoxP3neg) CD4 T cells | sparing CD8 | sparing CD8 and other CD4 T cells | inhibits TC-1 tumor growth | prolongs the survival | inhibits TC-1 tumor growth | prolongs the survival
